Data: patent US20080247991A1, “Solution Additives For the Attenuation of Protein Aggregation” (priority 2004, published 2008)
Marks after values point to notes of the source that are not given here.

What was measured:
RNase A = target: T1, RNase A (Bos taurus, UniProt P61823); conditions: interpolated to mbulk 0.91 m; cited from earlier work
T1 sequence (P61823 27-150): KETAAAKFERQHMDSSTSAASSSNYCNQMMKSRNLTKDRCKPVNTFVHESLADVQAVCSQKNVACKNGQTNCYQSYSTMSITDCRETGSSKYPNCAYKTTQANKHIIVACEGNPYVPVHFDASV

[1] = target: T2, insulin binding to immobilized monoclonal anti-insulin (Homo sapiens, UniProt P01308); assay: Surface plasmon resonance (Biacore 3000): globular protein association/dissociation kinetics in buffer with additive; conditions: for effect on association rate of insulin and anti-insulin / effect on dissociation rate of insulin and anti-insulin: 0.5M, relative to 0.5M NaCl control
T2 construct: purchased Sigma-Aldrich (insulin); Fitzgerald Industries (antibody) I8530; 10-130 clone M322214
T2 sequence (P01308 25-54 limits assumed): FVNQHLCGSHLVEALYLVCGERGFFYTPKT
T2 sequence (P01308 90-110 limits assumed): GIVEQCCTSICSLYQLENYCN
Experimental: Surface plasmon resonance experiments were conducted to measure the effect of added ArgHCl and GuHCl on the kinetics of globular protein association and dissociation versus an equimolar salt control (NaCl). The data set shown in the figure is a composition of 8 different concentration runs plus replicates, for a total of 16 runs. At t=140 sec, the flow cell with immobilized anti-insulin was exposed to a constant concentration of insulin in the range of 2 to 188 nM for 3 minutes. During this 3 minutes, the antibody and antigen were free to associate and dissociate. The net reaction is the binding of free antigen in solution, resulting in an increase in detector response proportional to the mass of antigen bound. At t=320 sec, the insulin concentration in the flow cell inlet is returned to zero, and the bound antigen then dissociates from the surface. All 16 runs were simultaneously fit to a binding model by minimizing the squared residuals to yield the association and dissociation rate constants, ka and kd. This process was repeated to yield association, dissociation, and equilibrium constant data for the model systems in various buffers as shown in Table 4.
Globular Protein Association Kinetics—Protein association and dissociation rate constants, ka and kd, were measured for globular proteins via surface plasmon resonance on a Biacore 3000 instrument. Monoclonal anti-insulin was immobilized on a Biacore CM5 sensor chip via amine coupling. The amount of immobilized antibody was selected to give a detector response in the range of 50-100 RU when antigen was present. A reference surface was created by activating and deactivating the surface without coupling an antibody to it.
Different concentrations of insulin in the nanomolar range ([…]) were prepared by dilution and injected serially into the antibody-containing and reference flow cells. […] Pocker, Y. & Biswas, Subhasis, B. (1981) Biochemistry 20, 4354-4361. The dissociation rate was sufficiently fast in buffer that a regeneration buffer was not required. Kinetic constants were extracted by simultaneous fitting of ka and kd to each set of sensorgrams using a 1:1 kinetic model in the BIAevaluation 3.0 software package.

carbonic anhydrase II [2] = target: T3, carbonic anhydrase II (Bos taurus, UniProt P00921); assay: Carbonic anhydrase refolding yield by esterase activity (pNPA)
T3 sequence (P00921 whole entry): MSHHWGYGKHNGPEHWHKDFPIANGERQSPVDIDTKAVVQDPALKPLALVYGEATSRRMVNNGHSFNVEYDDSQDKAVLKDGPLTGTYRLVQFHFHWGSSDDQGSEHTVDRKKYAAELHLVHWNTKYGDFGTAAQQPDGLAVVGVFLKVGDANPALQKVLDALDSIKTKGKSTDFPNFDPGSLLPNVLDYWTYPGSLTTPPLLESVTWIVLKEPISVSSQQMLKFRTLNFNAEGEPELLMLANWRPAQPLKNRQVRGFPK
Experimental: Esterase activity assays were performed as a function of initial unfolded protein concentration and buffer composition to determine how equimolar concentrations of NaCl, ArgHCl, and GuHCl each affected refolding yield (FIG. 16).
High concentrations of carbonic anhydrase (>300 μM) were denatured in 6M GuHCl and equilibrated overnight. Refolding was initiated by dilution to 0.5M GuHCl with 50 mM Tris-HCl buffer, pH 7.5. This final GuHCl concentration was selected because it yields a mixture of active, refolded protein and aggregates. The distribution of this mixture was analyzed via esterase activity, size exclusion HPLC, and dynamic light scattering as described above.
Carbonic Anhydrase Esterase Activity—Esterase activity of carbonic anhydrase was assessed using para-nitrophenylacetate (pNPA) as the substrate as described previously. […] Briefly, 10 μl samples of carbonic anhydrase solution were added to 500 μl of Tris-HCl, pH 7.5 and 50 μl of 50 mM pNPA in acetonitrile. Kinetics of hydrolysis of pNPA was observed by the increase in absorbance at 400 nm due to the appearance of the paranitrophenolate ion (pNP^−). In all cases, the observed hydrolysis rate in absorbance units per second (AU/s) under these conditions was constant (pseudo-zero order). Hydrolysis rates were corrected for the hydrolysis of pNPA by the buffer for each type of buffer used. […] The active protein concentration data was reproducible to within 5-8% in replicated experiments.

carbonic anhydrase II [3] = target: T3, carbonic anhydrase II; assay: Size exclusion HPLC of multimers formed during refolding of carbonic anhydrase; parameters: purchased Sigma-Aldrich C2522; species or system bovine; conditions: for A2, percentage of total carbonic anhydrase / A3-5, percentage of total carbonic anhydrase / A6-15, percentage of total carbonic anhydrase / M (monomer), percentage of total carbonic anhydrase / Large multimers, percentage of total carbonic anhydrase: [U]0 = 20 μM, 0.5 M additive; for Large multimers, percentage of total carbonic anhydrase: inferred by difference
Experimental: Size exclusion HPLC experiments were performed to analyze the distribution of multimers formed during refolding. CA was refolded with three different additives, 0.5M NaCl, 0.5M GuHCl, and 0.5M ArgHCl, relative to a base refolding buffers of 0.5M GuHCl, as done in the esterase activity assays above. […] Other than this protein concentration difference, these experiments allow direct comparison of how an additional 0.5M of the three different cations affect refolding.
The samples were not filtered prior to introduction into the HPLC column.
Size Exclusion HPLC—Size exclusion HPLC (SE-HPLC) experiments were performed on a Beckman System Gold HPLC instrument equipped with a Tosohaas G3000SWXL size exclusion column and a UV detector. 30 μl samples were introduced to the column by a constant flow of 1 ml/min mobile phase. Each sample ran for 15 minutes, with carbonic anhydrase eluting between 6 and 10 minutes, depending on its molecular weight and buffer. […] A mixture of lysozyme, carbonic anhydrase, and bovine serum albumin (monomer and dimer) was used as a standard to calibrate molecular weight to retention time. Using this calibration curve and the breakthrough time of the column, the largest multimer that could pass through the column was a 15-mer. When significant mass was missing from a chromatogram, large multimers were quantitated by difference. The presence of large multimers was confirmed via turbidity or dynamic light scattering for each buffer. The instrument was cleaned with 30 μl injections of 4M GuHCl, a denaturing concentration found to dissociate and elute precipitates and large soluble carbonic anhydrase multimers.

carbonic anhydrase II [4] = target: T3, carbonic anhydrase II; parameters: purchased Sigma-Aldrich C2522; conditions: 1.0M GuHCl, carbonic anhydrase less than 30 μM; previous studies; cited from earlier work
RNase T1 = target: T4, RNase T1 (Aspergillus oryzae, UniProt P00651); conditions: interpolated to mbulk 1.10 m; cited from earlier work
T4 sequence (P00651 27-130): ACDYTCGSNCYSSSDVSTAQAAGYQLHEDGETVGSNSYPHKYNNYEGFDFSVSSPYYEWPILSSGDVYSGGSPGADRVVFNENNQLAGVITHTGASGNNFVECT

[5] = target: Human insulin (I8530), Sigma-Aldrich (human) (UniProt P01308); assay: SPR, Biacore 3000, antibody immobilised on CM5, insulin as analyte, KD = kd/ka; HBS-EP + 0.5 M ArgHCl
Human insulin (I8530), Sigma-Aldrich (human), sequence (P01308 25-54 limits assumed, chain 1 of 2): as the sequence (P01308 25-54 limits assumed) above

[6] = target: Human insulin (I8530), Sigma-Aldrich (human) (UniProt P01308); assay: SPR, Biacore 3000, antibody immobilised on CM5, insulin as analyte, 1:1 model; HBS-EP + 0.5 M ArgHCl
[7] = target: Human insulin (I8530), Sigma-Aldrich (human) (UniProt P01308); assay: SPR; association rate constant in HBS-EP + 0.5 M ArgHCl relative to HBS-EP + 0.5 M NaCl
[8] = target: Human insulin (I8530), Sigma-Aldrich (human) (UniProt P01308); assay: SPR; dissociation rate constant in HBS-EP + 0.5 M ArgHCl relative to HBS-EP + 0.5 M NaCl
[9] = target: Human insulin (I8530), Sigma-Aldrich (human) (UniProt P01308); assay: SPR, Biacore 3000, antibody immobilised on CM5, insulin as analyte, 1:1 model; HBS-EP + 0.5 M NaCl
[10] = target: Human insulin (I8530), Sigma-Aldrich (human) (UniProt P01308); assay: SPR, Biacore 3000, antibody immobilised on CM5, insulin as analyte, 1:1 model; HBS-EP + 0.5 M GuHCl
[11] = target: Human insulin (I8530), Sigma-Aldrich (human) (UniProt P01308); assay: SPR; dissociation rate constant in HBS-EP + 0.5 M GuHCl relative to HBS-EP + 0.5 M NaCl
[12] = target: Human insulin (I8530), Sigma-Aldrich (human) (UniProt P01308); assay: SPR; association rate constant in HBS-EP + 0.5 M GuHCl relative to HBS-EP + 0.5 M NaCl
[13] = target: Human insulin (I8530), Sigma-Aldrich (human) (UniProt P01308); assay: SPR, Biacore 3000, antibody immobilised on CM5, insulin as analyte, KD = kd/ka; HBS-EP + 0.5 M GuHCl
[14] = target: Human insulin (I8530), Sigma-Aldrich (human) (UniProt P01308); assay: SPR, Biacore 3000, antibody immobilised on CM5, insulin as analyte, KD = kd/ka; HBS-EP + 0.5 M NaCl
[15] = 0.5 M additive in HBS-EP, pH 7.4, estimated error 15%
[16] = 0.5 M additive, relative to HBS-EP + 0.5 M NaCl

OCC(O)CO [Glycerol]
Experimental ΓXP (RNase A): −1.7 ± 0.8^b

Cl.N=C(N)N [GuHCl, Guanidinium chloride]
ka [1, 15]: 40000 M⁻¹ s⁻¹
kd [1, 15]: 0.094 s⁻¹
ka/ka0 [1, 16]: 0.91
kd/kd0 [1, 16]: 6.7
effect on association rate of insulin and anti-insulin [1]: insignificant effect
effect on dissociation rate of insulin and anti-insulin [1]: significantly increases
effect on association rate of insulin and anti-insulin ([1]; listed as guanidinium): little effect
effect on dissociation rate of insulin and anti-insulin ([1]; listed as guanidinium): accelerated
α/α0 (carbonic anhydrase II [2]; 0.5 M additive, relative to 0.5M NaCl, base buffer 0.5 M GuHCl): 8.2
α (refolding selectivity parameter, kr/kagg) (carbonic anhydrase II [2]; 0.5 M additive, base buffer 0.5 M GuHCl, fit to second-order aggregation model): 77 µM
order of yield of active protein as a function of buffer additive (carbonic anhydrase II [2]; equimolar (0.5M) additives): NaCl<<ArgHCl<GuHCl
yield of monomeric protein (carbonic anhydrase II [3]; 0.5M added, versus 0.5M NaCl): significantly increased
A2, percentage of total carbonic anhydrase (carbonic anhydrase II [3]; time 2 min): 39%
A3-5, percentage of total carbonic anhydrase (carbonic anhydrase II [3]; time 2 min): 8%
A6-15, percentage of total carbonic anhydrase (carbonic anhydrase II [3]; time 2 min): 0%
M (monomer), percentage of total carbonic anhydrase (carbonic anhydrase II [3]; time 2 min): 42%
Large multimers, percentage of total carbonic anhydrase (carbonic anhydrase II [3]; time 2 min): 11%
A2, percentage of total carbonic anhydrase (carbonic anhydrase II [3]; time 20 min): 3%
A3-5, percentage of total carbonic anhydrase (carbonic anhydrase II [3]; time 20 min): 6%
A6-15, percentage of total carbonic anhydrase (carbonic anhydrase II [3]; time 20 min): 0%
M (monomer), percentage of total carbonic anhydrase (carbonic anhydrase II [3]; time 20 min): 82%
Large multimers, percentage of total carbonic anhydrase (carbonic anhydrase II [3]; time 20 min): 9%
A2, percentage of total carbonic anhydrase (carbonic anhydrase II [3]; time 38 min): 1%
A3-5, percentage of total carbonic anhydrase (carbonic anhydrase II [3]; time 38 min): 5%
A6-15, percentage of total carbonic anhydrase (carbonic anhydrase II [3]; time 38 min): 0%
M (monomer), percentage of total carbonic anhydrase (carbonic anhydrase II [3]; time 38 min): 85%
Large multimers, percentage of total carbonic anhydrase (carbonic anhydrase II [3]; time 38 min): 9%
A2, percentage of total carbonic anhydrase (carbonic anhydrase II [3]; time 1500 min): 0%
A3-5, percentage of total carbonic anhydrase (carbonic anhydrase II [3]; time 1500 min): 2%
A6-15, percentage of total carbonic anhydrase (carbonic anhydrase II [3]; time 1500 min): 0%
M (monomer), percentage of total carbonic anhydrase (carbonic anhydrase II [3]; time 1500 min): 89%
Large multimers, percentage of total carbonic anhydrase (carbonic anhydrase II [3]; time 1500 min): 9%
yield of native protein (carbonic anhydrase II [4]): ~100%

NC(N)=O [Urea]
Experimental ΓXP (RNase T1): 6.4^a

Monoclonal anti-insulin (10-130 clone M322214), Fitzgerald Industries (antibody)
Kd [5]: 1.8 µM
koff [6]: 0.022 s⁻¹
kon [6]: 12000 M⁻¹ s⁻¹
ka/ka0 [7]: 0.27
kd/kd0 [8]: 1.6
koff [9]: 0.014 s⁻¹
kon [9]: 44000 M⁻¹ s⁻¹
koff [10]: 0.094 s⁻¹
kon [10]: 40000 M⁻¹ s⁻¹
kd/kd0 [11]: 6.7
ka/ka0 [12]: 0.91
Kd [13]: 2.4 µM
Kd [14]: 0.32 µM
